Broadly, the Ki is the dissociation constant of the complex between target and ligand, obtained from inhibition or displacement. A lower Ki goes with higher affinity.

The target of this test is CBL-B protein (Homo sapiens, UniProt Q13191). Nature of the test: CBL-B binding experiment (Streptavidin-Tb cryptate / Ligand L1 displacement). The following applies: 8 nM CBL-B protein, 25° C., 60 minutes; Ki=Relative IC50/2. As for the experimental part: The reaction system mainly includes 1× buffer, 20 mM HEPES pH 7.5, 150 mM NaCl, 0.01% Triton X-100, 0.5 mM TCEP, and 0.1% ug/ml BSA. The compound is continuously diluted with DMSO for 10 concentration points, and 150 nL is transferred to the experimental plate. The experimental reaction begins after adding 8 nM of CBL-B protein and the reaction is carried out at 25° C. for 60 minutes. […] After an additional 60 minutes of incubation at room temperature, the experimental plate is read using an EnVision plate. The luminescence signal values were converted to percentage inhibition rates. Inhibition %=(Sample value−Maximum value)/(Minimum value−Maximum value)×100. The minimum value refers to the measured value in the wells without CBL-B protein but with DMSO and Ligand, while the maximum value refers to the measured value in the wells with DMSO, CBL-B protein, and Ligand. The IC50 values are calculated by XLFit (version 5.3.1.3) in Excel. Equation: Y=Bottom+(Top−Bottom)/(1+(IC50/X)^HillSlope); Ki=Relative IC50/2.
CBL-B protein, sequence (Q13191 whole entry): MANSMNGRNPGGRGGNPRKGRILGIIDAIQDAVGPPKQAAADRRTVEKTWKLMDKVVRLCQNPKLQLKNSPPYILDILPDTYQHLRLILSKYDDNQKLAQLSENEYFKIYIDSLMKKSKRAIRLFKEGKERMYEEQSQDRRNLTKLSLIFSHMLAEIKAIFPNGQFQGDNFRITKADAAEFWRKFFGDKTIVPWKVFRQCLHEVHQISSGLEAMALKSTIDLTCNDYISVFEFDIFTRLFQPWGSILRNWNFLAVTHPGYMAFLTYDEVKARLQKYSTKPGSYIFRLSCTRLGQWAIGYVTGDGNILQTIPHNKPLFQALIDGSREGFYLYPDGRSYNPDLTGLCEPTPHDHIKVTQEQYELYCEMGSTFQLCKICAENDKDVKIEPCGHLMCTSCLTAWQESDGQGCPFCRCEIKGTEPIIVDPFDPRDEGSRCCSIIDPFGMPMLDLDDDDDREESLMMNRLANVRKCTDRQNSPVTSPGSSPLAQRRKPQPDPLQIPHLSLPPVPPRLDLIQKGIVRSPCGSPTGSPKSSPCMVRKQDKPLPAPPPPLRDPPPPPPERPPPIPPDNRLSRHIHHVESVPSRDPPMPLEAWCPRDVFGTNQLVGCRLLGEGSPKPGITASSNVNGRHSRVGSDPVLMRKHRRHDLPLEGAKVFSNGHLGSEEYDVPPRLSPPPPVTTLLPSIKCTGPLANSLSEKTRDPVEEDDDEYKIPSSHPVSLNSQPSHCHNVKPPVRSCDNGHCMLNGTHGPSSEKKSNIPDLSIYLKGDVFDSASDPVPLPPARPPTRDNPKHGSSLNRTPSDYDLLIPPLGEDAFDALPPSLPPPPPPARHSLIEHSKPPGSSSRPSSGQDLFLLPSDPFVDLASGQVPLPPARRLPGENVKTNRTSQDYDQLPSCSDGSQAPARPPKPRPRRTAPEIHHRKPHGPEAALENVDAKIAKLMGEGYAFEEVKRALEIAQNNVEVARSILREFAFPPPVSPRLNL
Turning to `C[C@H]1CCCN(Cc2cc3c(C(F)(F)F)cn(-c4cc(F)cc([C@]5(c6nncn6C)C[C@@H](C)C5)c4)c(=O)c3[nH]2)C1` [Compound T101, 6-(3-fluoro-5-((1s,3R)-3-methyl-1-(4-methyl-4H-1,2,4-triazol-3-yl)cyclobutyl)phenyl)-2-(((S)-3-methylpiperidin-1-yl)methyl)-4-(trifluoromethyl)-1,6-dihydro-7H-pyrrolo[2,3-c]pyridin-7-one], the inhibitory constant (Ki) is less than 50 nM.

Compound `Cn1cnnc1C1(c2cccc(-n3cc(C(F)(F)F)c4cc(CN5CC6CC5CC6(F)F)[nH]c4c3=O)c2)CCC1` (stereo not drawn) [Compound T105, 2-[(5,5-difluoro-2-azabicyclo[2.2.1]heptan-2-yl)methyl]-6-[3-[1-(4-methyl-1,2,4-triazol-3-yl)cyclobutyl]phenyl]-4-(trifluoromethyl)-1H-pyrrolo[2,3-c]pyridin-7-one] registered a Ki of less than 50 nM. The same measure for `Cn1cnnc1C1(c2cccc(-n3cc(C(F)(F)F)c4cc(CN5CC(F)CC(CO)C5)[nH]c4c3=O)c2)CCC1` (stereo not drawn) [Compound T106, 2-[[3-fluoro-5-(hydroxymethyl)-1-piperidyl]methyl]-6-[3-[1-(4-methyl-1,2,4-triazol-3-yl)cyclobutyl]phenyl]-4-(trifluoromethyl)-1H-pyrrolo[2,3-c]pyridin-7-one]: less than 50 nM; for `CO[C@@H]1CCN(Cc2cc3c(C(F)(F)F)cn(-c4cccc(C5(c6nncn6C)CCC5)c4)c(=O)c3[nH]2)C[C@@H]1F` [Compound T107, 2-(((3S,4R)-3-fluoro-4-methoxypiperidin-1-yl)methyl)-6-(3-(1-(4-methyl-4H-1,2,4-triazol-3-yl)cyclobutyl)phenyl)-4-(trifluoromethyl)-1,6-dihydro-7H-pyrrolo[2,3-c]pyridin-7-one]: less than 50 nM.

Compound `CO[C@H]1CCN(Cc2cc3c(C(F)(F)F)cn(-c4cccc(C5(c6nncn6C)CCC5)c4)c(=O)c3[nH]2)C[C@H]1F` [Compound T108, 2-(((3R,4S)-3-fluoro-4-methoxypiperidin-1-yl)methyl)-6-(3-(1-(4-methyl-4H-1,2,4-triazol-3-yl)cyclobutyl)phenyl)-4-(trifluoromethyl)-1,6-dihydro-7H-pyrrolo[2,3-c]pyridin-7-one] came in with a Ki of less than 50 nM. In turn, `C[C@H]1CN(Cc2cc3c(C(F)(F)F)cn(-c4cccc(C5(c6nncn6C)CCC5)c4)c(=O)c3[nH]2)CCC1(F)F` [Compound T110, 2-[[(3S)-4,4-difluoro-3-methyl-1-piperidyl]methyl]-6-[3-[1-(4-methyl-1,2,4-triazol-3-yl)cyclobutyl]phenyl]-4-(trifluoromethyl)-1H-pyrrolo[2,3-c]pyridin-7-one] displayed a Ki of less than 50 nM. On to `Cn1cnnc1C1(c2cccc(-n3cc(C(F)(F)F)c4cc(CN5CCC(C(F)F)CC5)[nH]c4c3=O)c2)CCC1` [Compound T112, 2-[[4-(difluoromethyl)-1-piperidyl]methyl]-6-[3-[1-(4-methyl-1,2,4-triazol-3-yl)cyclobutyl]phenyl]-4-(trifluoromethyl)-1H-pyrrolo[2,3-c]pyridin-7-one], for which the inhibition constant (Ki) was less than 50 nM. The same measure for `C[C@@H]1CCN(Cc2cc3c(C(F)(F)F)cn(-c4cccc(C5(c6nncn6C)CCC5)c4)c(=O)c3[nH]2)CC1(F)F` [Compound T115, (R)-2-((3,3-difluoro-4-methylpiperidin-1-yl)methyl)-6-(3-(1-(4-methyl-4H-1,2,4-triazol-3-yl)cyclobutyl)phenyl)-4-(trifluoromethyl)-1,6-dihydro-7H-pyrrolo[2,3-c]pyridin-7-one]: 50 to 100 nM; for `C[C@H]1CCN(Cc2cc3c(C(F)(F)F)cn(-c4cccc(C5(c6nncn6C)CCC5)c4)c(=O)c3[nH]2)CC1(F)F` [Compound T116, (S)-2-((3,3-difluoro-4-methylpiperidin-1-yl)methyl)-6-(3-(1-(4-methyl-4H-1,2,4-triazol-3-yl)cyclobutyl)phenyl)-4-(trifluoromethyl)-1,6-dihydro-7H-pyrrolo[2,3-c]pyridin-7-one]: 50 to 100 nM; for `CCN(CC)Cc1cc2c(C(F)(F)F)cn(-c3cccc([C@]4(c5nncn5C)C[C@@H](OC)C4)c3)c(=O)c2[nH]1` [Compound T117, 2-((diethylamino)methyl)-6-(3-((1s,3s)-3-methoxy-1-(4-methyl-4H-1,2,4-triazol-3-yl)cyclobutyl)phenyl)-4-(trifluoromethyl)-1,6-dihydro-7H-pyrrolo[2,3-c]pyridin-7-one]: less than 50 nM. In turn, `CCN(CC)Cc1cc2c(C(F)(F)F)cn(-c3cccc([C@]4(c5nncn5C)C[C@H](OC)C4)c3)c(=O)c2[nH]1` [Compound T118, 2-((diethylamino)methyl)-6-(3-((1r,3r)-3-methoxy-1-(4-methyl-4H-1,2,4-triazol-3-yl)cyclobutyl)phenyl)-4-(trifluoromethyl)-1,6-dihydro-7H-pyrrolo[2,3-c]pyridin-7-one] gave a Ki of less than 50 nM. Regarding `Cn1cnnc1C1(c2cccc(-n3cc(C(F)(F)F)c4cc(CN5CCC[C@]6(CCOC6)C5)[nH]c4c3=O)c2)CCC1` [Compound T123, (S)-2-((2-oxa-7-azaspiro[4.5]decan-7-yl)methyl)-6-(3-(1-(4-methyl-4H-1,2,4-triazol-3-yl)cyclobutyl)phenyl)-4-(trifluoromethyl)-1,6-dihydro-7H-pyrrolo[2,3-c]pyridin-7-one], the Ki is less than 50 nM. The value for `Cn1cnnc1C1(c2cccc(-n3cc(C(F)(F)F)c4cc(CN5CCC[C@@]6(CCOC6)C5)[nH]c4c3=O)c2)CCC1` [Compound T124, (R)-2-((2-oxa-7-azaspiro[4.5]decan-7-yl)methyl)-6-(3-(1-(4-methyl-4H-1,2,4-triazol-3-yl)cyclobutyl)phenyl)-4-(trifluoromethyl)-1,6-dihydro-7H-pyrrolo[2,3-c]pyridin-7-one] was 100 to 500 nM; that for `Cn1cnnc1C1(c2cccc(-n3cc(C(F)(F)F)c4cc(CN5CCC6(CCOC6)CC5)[nH]c4c3=O)c2)CCC1` [Compound T125, 2-((2-oxa-8-azaspiro[4.5]decan-8-yl)methyl)-6-(3-(1-(4-methyl-4H-1,2,4-triazol-3-yl)cyclobutyl)phenyl)-4-(trifluoromethyl)-1,6-dihydro-7H-pyrrolo[2,3-c]pyridin-7-one] was less than 50 nM.

`CC1CC(c2cc(C(N)=O)cc(-n3cc(C(F)(F)F)c4cc(CN5CCC[C@H](C)C5)[nH]c4c3=O)c2)(c2nncn2C)C1` (stereo partly drawn) [Compound T127, 3-[3-methyl-1-(4-methyl-1,2,4-triazol-3-yl)cyclobutyl]-5-[2-[[(3S)-3-methyl-1-piperidyl]methyl]-7-oxo-4-(trifluoromethyl)-1H-pyrrolo[2,3-c]pyridin-6-yl]benzamide] came in with a Ki of less than 50 nM. The value for `CC1CC(c2cc(C(=O)O)cc(-n3cc(C(F)(F)F)c4cc(CN5CCC[C@H](C)C5)[nH]c4c3=O)c2)(c2nncn2C)C1` (stereo partly drawn) [Compound T128, 3-[3-methyl-1-(4-methyl-1,2,4-triazol-3-yl)cyclobutyl]-5-[2-[[(3S)-3-methyl-1-piperidyl]methyl]-7-oxo-4-(trifluoromethyl)-1H-pyrrolo[2,3-c]pyridin-6-yl]benzoic acid] was less than 50 nM.

With `C[C@H]1CCCN(Cc2cc3c(C(F)(F)F)cn(-c4cccc(C5(c6nncn6C)COC5)c4)c(=O)c3[nH]2)C1` [Compound T129, (S)-6-(3-(3-(4-methyl-4H-1,2,4-triazol-3-yl)oxetan-3-yl)phenyl)-2-((3-methylpiperidin-1-yl)methyl)-4-(trifluoromethyl)-1,6-dihydro-7H-pyrrolo[2,3-c]pyridin-7-one], the Ki was less than 50 nM.

In the case of `C[C@@H]1CN(Cc2cc3c(C(F)(F)F)cn(-c4cccc([C@]5(c6nncn6C)C[C@@H](C)C5)c4)c(=O)c3[nH]2)CCN1C(=O)OC(C)(C)C` [Compound T141, tert-butyl (2R)-2-methyl-4-[[6-[3-[3-methyl-1-(4-methyl-1,2,4-triazol-3-yl)cyclobutyl]phenyl]-7-oxo-4-(trifluoromethyl)-1H-pyrrolo[2,3-c]pyridin-2-yl]methyl]piperazine-1-carboxylate], the Ki was less than 50 nM.

Regarding `C[C@@H]1CN(Cc2cc3c(C(F)(F)F)cn(-c4cccc([C@]5(c6nncn6C)C[C@@H](C)C5)c4)c(=O)c3[nH]2)CCN1` [Compound T142, 6-[3-[3-methyl-1-(4-methyl-1,2,4-triazol-3-yl)cyclobutyl]phenyl]-2-[[(3R)-3-methylpiperazin-1-yl]methyl]-4-(trifluoromethyl)-1H-pyrrolo[2,3-c]pyridin-7-one], the Ki was less than 50 nM.

For the compound `CO[C@H]1C[C@@](c2cccc(-n3cc(C(F)(F)F)c4cc(CN5CC6CC6C5)[nH]c4c3=O)c2)(c2nncn2C)C1` (stereo partly drawn) [Compound T143, 2-((3-azabicyclo[3.1.0]hexan-3-yl)methyl)-6-(3-((1s,3s)-3-methoxy-1-(4-methyl-4H-1,2,4-triazol-3-yl)cyclobutyl)phenyl)-4-(trifluoromethyl)-1,6-dihydro-7H-pyrrolo[2,3-c]pyridin-7-one], the Ki was less than 50 nM. Compound `CO[C@H]1C[C@](c2cccc(-n3cc(C(F)(F)F)c4cc(CN5CC6CC6C5)[nH]c4c3=O)c2)(c2nncn2C)C1` (stereo partly drawn) [Compound T144, 2-((3-azabicyclo[3.1.0]hexan-3-yl)methyl)-6-(3-((1r,3r)-3-methoxy-1-(4-methyl-4H-1,2,4-triazol-3-yl)cyclobutyl)phenyl)-4-(trifluoromethyl)-1,6-dihydro-7H-pyrrolo[2,3-c]pyridin-7-one] returned a Ki of less than 50 nM.

The values are drawn from patent US20260217706A1, “HETEROCYCLIC COMPOUNDS, PREPARATION METHOD THEREFOR AND USE THEREOF” (GUANGZHOU YUFAN NANTU BIOTECHNOLOGIES CO., LTD, priority 2023, published 2026).
